# According to PubChem BioAssay AID1963870 (Molecular Pharmacology Branch, DTP, NCI, 2024):
# pIC50: −log10 of the molar value.
# Tested on: 292921-168-R-J2-PDC KRAS tumor spheroid viability
# Experiment: Anticancer human tumor 292921-168-R-J2-PDC patient-derived pancreatic carcinoma cell line growth inhibition [KRAS2]
# Details: spheroids with HUVEC and MSC; for pIC50: curve of first compound; for viability, T/C: stronger effect = lower value
# In short: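 KRAS-mutant tumor cells were grown as spheroids with HUVEC endothelial cells and human MSCs as stroma. Targeted agents were tested alone and with KRAS pathway inhibitors. Doses started at or near clinical Cmax, or 10 microM, descending half-log.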
# 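Further: drug exposure lasted seven days after spheroids formed for three days.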
# 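Wherever viability, T/C is given: percent of DMSO vehicle control viability which is 100%.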
compound,measurement,setting,value
CC1OCC2(CCN(c3cnc(Sc4ccnc(N)c4Cl)c(N)n3)CC2)C1N (stereo not given) + COc1cc2nc(C)nc(NC(C)c3cc(N)cc(C(F)(F)F)c3)c2cc1OC1CCOC1,pIC50,second compound 0.1 µM,6.62
same,pIC50,second compound 0.316 µM,6.90
same,pIC50,second compound 1 µM,6.99
same,pIC50,second compound 3.16 µM,7.28
same,pIC50,second compound 10 µM,> 7.50
same,"viability, T/C","second compound 0.1 µM, first compound 0.0316 µM",70.2%
same,"viability, T/C","second compound 0.1 µM, first compound 0.1 µM",60.1%
same,"viability, T/C","second compound 0.1 µM, first compound 0.316 µM",46.6%
same,"viability, T/C","second compound 0.1 µM, first compound 1 µM",36.8%
same,"viability, T/C","second compound 0.1 µM, first compound 3.16 µM",30.2%
same,"viability, T/C","second compound 0.1 µM, first compound 10 µM",26.9%
same,"viability, T/C","second compound 0.316 µM, first compound 0.0316 µM",69.2%
same,"viability, T/C","second compound 0.316 µM, first compound 0.1 µM",53%
same,"viability, T/C","second compound 0.316 µM, first compound 0.316 µM",39.9%
same,"viability, T/C","second compound 0.316 µM, first compound 1 µM",33.1%
same,"viability, T/C","second compound 0.316 µM, first compound 3.16 µM",29.2%
same,"viability, T/C","second compound 0.316 µM, first compound 10 µM",26.1%
same,"viability, T/C","second compound 1 µM, first compound 0.0316 µM",62.4%
same,"viability, T/C","second compound 1 µM, first compound 0.1 µM",51%
same,"viability, T/C","second compound 1 µM, first compound 0.316 µM",36.1%
same,"viability, T/C","second compound 1 µM, first compound 1 µM",31.1%
same,"viability, T/C","second compound 1 µM, first compound 3.16 µM",26.3%
same,"viability, T/C","second compound 1 µM, first compound 10 µM",24.3%
same,"viability, T/C","second compound 3.16 µM, first compound 0.0316 µM",56.1%
same,"viability, T/C","second compound 3.16 µM, first compound 0.1 µM",42.4%
same,"viability, T/C","second compound 3.16 µM, first compound 0.316 µM",33.5%
same,"viability, T/C","second compound 3.16 µM, first compound 1 µM",27.5%
same,"viability, T/C","second compound 3.16 µM, first compound 3.16 µM",23.8%
same,"viability, T/C","second compound 3.16 µM, first compound 10 µM",21.7%
same,"viability, T/C","second compound 10 µM, first compound 0.0316 µM",23.1%
same,"viability, T/C","second compound 10 µM, first compound 0.1 µM",20.2%
same,"viability, T/C","second compound 10 µM, first compound 0.316 µM",17.4%
same,"viability, T/C","second compound 10 µM, first compound 1 µM",14.2%
same,"viability, T/C","second compound 10 µM, first compound 3.16 µM",15.4%
same,"viability, T/C","second compound 10 µM, first compound 10 µM",13.2%
